{"source": "patent US20190030009A1", "about": "“COMPOUNDS AND COMPOSITIONS FOR THE TREATMENT OF CRYPTOSPORIDIOSIS” (Novartis AG, priority 2016, published 2019)"}
{"test_system": "Cryptosporidium parvum", "assay": "Cytopathic effect (CPE) based assay, C. parvum infected HCT-8 cells", "conditions": "HCT-8 host cell viability (CellTiter-Glo), 48 hours treatment, read-out: Cp CPE EC50", "procedure": "Human ileocecal colorectal adenocarcinoma cells (HCT-8 [HRT-18] ATCC, CCL-34) were maintained in T-175 flasks (Corning, 431080) in complete growth medium (RPMI-1640 medium (Gibco, 11875) supplemented with 10% heat-inactivated horse serum (Gibco, 26050), 1×MEM non-essential amino acids (Gibco, 11140), 10 mM HEPES (Gibco, 15630), 100 units/mL penicillin, and 100 units/mL streptomycin) at 37° C. and 5% CO2 in a humidified incubator. Cultures were passaged twice weekly using 10 mL of 1×Phosphate-Buffered Saline (PBS) without Ca^2+ and Mg^2+ (Gibco, 20012) for washing and 3-5 mL per T-175 flask of TrypLE Express Enzyme (Gibco, 12604) for dissociation of adherent cells.\nCryptosporidium parvum oocysts purchased from the Sterling Laboratory, University of Arizona (Iowa isolate) were purified from infected calf feces using discontinuous sucrose and cesium chloride centrifugation gradients and stored in PBS solution containing 0.01% Tween 20, 100 units/mL penicillin and 100 units/mL gentamicin.\nExcystation and infection protocols were developed following established methods with some modifications (Gut & Nelson, 1999, Upton et aL, 1995, Bessoff et aL, 2013). Briefly, oocysts were primed in 1 mL of 10 mM hydrochloric acid in 1× Hank's Balanced Salt Solution (HBSS) (Gibco, 14025) for 10 minutes with agitation at 1000 rpm, 37° C. on an Eppendorf thermomixer, then washed twice with 1 mL of room temperature non-acidic 1× HBSS by centrifugation at 13,000 rpm for 3 minutes at 25° C. Primed oocysts were further excysted at a concentration of 1×10^6 oocysts/μL in parasite infection medium consisting of a pre-warmed and pre-gassed 1:1 formulation of Leibovitz's L-15 medium (Gibco, 11415) and UltraCULTURE medium (Lonza, 12-725F) supplemented with 2 mM sodium taurocholate (Sigma, 86339-1), 10% heat-inactivated horse serum, and 200 μM L-ascorbic acid (Sigma, 95210) at 25° C. for 10 minutes. HCT-8 monolayer cells were infected with excysted cryptosporidium at a specified multiplicity of infection (MOI). All dilutions for subsequent assays were performed in parasite infection medium without sodium taurocholate. Pre-excysted oocysts were enumerated microscopically using a C-Chip disposable hemocytometer (NanoEnTek, DHC-N01).\nCompound powders were dissolved in neat DMSO (Fisher, D4121) to 10 mM and stored at 4° C. prior to dilution into source plates. Dilutions were carried out using a Microlab STAR liquid handler (Hamilton) to obtain compound source plates containing the ten-point or eight-point three fold dilutions starting from 10 mM in duplicates. Source plates were stored at 4° C. prior to spotting into assay plates. Before administration, all compound source plates were equilibrated to room temperature. A specified volume of compounds from source plate were spotted to assay plate using an Echo Acoustic liquid handler (LABCYTE, 550) so that the final DMSO concentration was less than 0.5%. Each assay plate a specified number of DMSO-treated negative control wells and a well-studied potent active compound at 100 nM as positive control. As a quality control, all positive and negative-control wells were used to calculate a Z′-value and signal to noise ratio (S:N) for each plate.\nCryptosporidium spp are obligate-intracellular parasites that infect intestinal epithelial cells and the host cell is killed upon parasite egress. […] The loss of epithelial cells is due to both rapid parasite invasion/multiplication/egress and also pro-inflammatory immune response (Adams et al., 1994, Griffiths et al., 1994). We have observed a consistent cytopathic effect (CPE) in HCT-8 cells with C. spp infection the loss of viability of the host cells using CellTiter-Glo reagent.\nConfluent HCT-8 cells in T-175 flasks were directly infected with excysted oocysts at an MOI (host to parasite) of 1:2 for C. parvum and 1:4 for C. hominis. The number of host-cells is determined using a NucleoCounter (Chemometec, NC-100) in a control flask. […]", "units": {"EC50": "µM"}}
{"smiles": "CN(C(=O)c1ccc(Cl)cc1)c1ccn2ncc(-c3ccc(C(F)(F)F)cc3)c2c1", "note": "[Example 55]", "EC50": 7.3}
{"smiles": "CN(C(=O)c1ccn2ncc(-c3ccc(C(N)=O)cn3)c2c1)c1ccc(C#N)cn1", "note": "[Example 61]", "EC50": 17.8}
{"smiles": "CN(C(=O)Nc1ccc(F)cc1)c1ccn2ncc(-c3ccc(C(F)(F)F)cc3)c2c1", "note": "[Example 47]", "EC50": "> 20"}
{"smiles": "CNC(=O)c1ccc(-c2cnn3ccc(C(=O)N(C)c4ccc(C#N)cc4)cc23)cc1", "note": "[Example 67]", "EC50": 0.026}
{"smiles": "N#Cc1ccc(C(=O)N(CC2CCOCC2)c2ccn3ncc(-c4ccc(C(F)(F)F)cc4)c3c2)cc1", "note": "[Example 39]", "EC50": "> 20"}
{"smiles": "Cc1ccc(OCc2ccn3ncc(-c4ccc(C(F)(F)F)cc4)c3c2)nc1", "note": "[Example 15]", "EC50": "> 20"}
{"smiles": "Cc1ccc(N(C)Cc2ccn3ncc(-c4ccc(C(F)(F)F)cc4)c3c2)nc1", "note": "[Example 7]", "EC50": "> 20"}
{"smiles": "CNC(=O)c1ccc(-c2cnn3ccc(C(=O)N4CCOc5cc(F)ccc54)cc23)cc1", "note": "[Example 73]", "EC50": 0.964}
{"smiles": "CN(C(=O)c1ccn2ncc(-c3ccc(C(F)(F)F)cc3)c2c1)c1ccc(Cl)cc1", "note": "[Example 3]", "EC50": 16.5}
{"smiles": "CC(=O)Nc1ccc(-c2cnn3ccc(C(=O)N(C)c4ccc(C#N)cn4)cc23)cc1", "note": "[Example 69]", "EC50": 0.201}
{"smiles": "CN(C(=O)c1ccn2ncc(-c3cnc(N)c(F)c3)c2c1)c1ccc(C#N)cc1", "note": "[Example 79]", "EC50": 0.205}
{"smiles": "CN(C(=O)c1ccc(F)cc1)c1ccn2ncc(-c3ccc(C(N)=O)cc3)c2c1", "note": "[Example 56]", "EC50": 0.692}
{"smiles": "CNC(=O)c1ccc(-c2cnn3ccc(C(=O)N(c4ccc(C#N)cn4)C4COC4)cc23)cc1", "note": "[Example 76]", "EC50": "> 20"}
{"smiles": "CN(C(=O)c1ccc(F)cc1)c1ccn2ncc(-c3ccc(C(F)(F)F)cc3)c2c1", "note": "[Example 29]", "EC50": "> 20"}
{"smiles": "CN(C(=O)c1ccn2ncc(-c3ccc(C(N)=O)cc3)c2c1)c1ccc(C(F)(F)F)cn1", "note": "[Example 62]", "EC50": 0.028}
{"smiles": "CN(C(=O)c1ccn2ncc(-c3cnc(N)c(C(F)(F)F)c3)c2c1)c1ccc(C#N)cn1", "note": "[Example 84]", "EC50": 4.27}
{"smiles": "CN(C(=O)c1ccc(C(F)(F)F)cn1)c1ccn2ncc(-c3ccc(C(F)(F)F)cc3)c2c1", "note": "[Example 38]", "EC50": 4.71}
{"smiles": "CN(C(=O)c1ccn2ncc(-c3ccc(C(F)(F)F)cc3)c2c1)C1=CCC(C#N)C=C1", "note": "(centres unmarked) [Example 1]", "EC50": 0.66}
{"smiles": "CN(Cc1ccc(F)cc1)c1ccn2ncc(-c3ccc(C(F)(F)F)cc3)c2c1", "note": "[Example 36]", "EC50": "> 20"}
{"smiles": "C[C@H](N)C(=O)Nc1ccc(-c2cnn3ccc(C(=O)N(C)c4ccc(C#N)cc4)cc23)cc1", "note": "[Example 26]", "EC50": 0.142}
{"smiles": "CN(C(=O)c1ccc(C(F)(F)F)nc1)c1ccn2ncc(-c3ccc(C(F)(F)F)cc3)c2c1", "note": "[Example 37]", "EC50": 3.79}
{"smiles": "Cc1cc(-c2cnn3ccc(C(=O)N(C)c4ccc(C#N)cc4)cc23)cc(C)c1N", "note": "[Example 80]", "EC50": 1.17}
{"smiles": "CN(C(=O)c1ccn2ncc(-c3ccc(C(F)(F)F)cc3)c2c1)c1ccc(F)cc1", "note": "[Example 4]", "EC50": 6.78}
{"smiles": "Fc1ccc(CNc2ccn3ncc(-c4ccc(C(F)(F)F)cc4)c3c2)cc1", "note": "[Example 35]", "EC50": "> 20"}
{"smiles": "Cc1ccc(-c2cnn3ccc(C(=O)N(C)c4ccc(C#N)cn4)cc23)nc1", "note": "[Example 59]", "EC50": "> 20"}
{"smiles": "CN(Cc1ccn2ncc(-c3ccc(C(F)(F)F)cc3)c2c1)c1ccc(F)cc1", "note": "[Example 2]", "EC50": "> 20"}
{"smiles": "COc1cc(-c2cnn3ccc(C(=O)N(C)c4ccc(C#N)cn4)cc23)cnc1N", "note": "[Example 88]", "EC50": 2.25}
{"smiles": "CC(=O)Nc1ccc(-c2cnn3ccc(C(C)N(C)c4ccc(C)cn4)cc23)cc1", "note": "(centres unmarked) [Example 68]", "EC50": 19.6}
{"smiles": "CN(C(=O)c1ccn2ncc(-c3ccc(C(F)(F)F)cc3)c2c1)c1ccc(S(C)(=O)=O)cn1", "note": "[Example 34]", "EC50": 4.87}
{"smiles": "CN(C(=O)c1ccn2ncc(-c3ccc(C(N)=O)cc3)c2c1)c1ccc(Cl)cc1C=O", "note": "[Example 89]", "EC50": 0.085}
{"smiles": "CN(C(=O)c1ccn2ncc(-c3ccc(C(F)(F)F)cn3)c2c1)c1ccc(C#N)cn1", "note": "[Example 25]", "EC50": 2.3}
{"smiles": "CN(c1ccn2ncc(-c3ccc(C(F)(F)F)cc3)c2c1)S(=O)(=O)c1ccc(F)cc1", "note": "[Example 31]", "EC50": "> 20"}
{"smiles": "CN(C(=O)c1ccn2ncc(-c3ccc(C(F)(F)F)cn3)c2c1)c1ccc(C#N)cc1", "note": "[Example 24]", "EC50": "> 20"}
{"smiles": "CN(C(=O)c1ccn2ncc(-c3ccc(C(F)(F)F)cc3)c2c1)c1ccc(C(F)(F)F)cn1", "note": "[Example 33]", "EC50": 1.51}
{"smiles": "[O-][S+](Cc1ccn2ncc(-c3ccc(C(F)(F)F)cc3)c2c1)c1ccc(F)cc1", "note": "(centres unmarked) [Example 22]", "EC50": "> 20"}
{"smiles": "CN(c1ccn2ncc(-c3ccc(C(F)(F)F)cc3)c2c1)S(=O)(=O)c1ccc(C#N)cc1", "note": "[Example 30]", "EC50": "> 20"}
{"smiles": "CNc1nnc(-c2ccc(-c3cnn4ccc(N(C)C(=O)c5ccc(F)cc5)cc34)cc2)s1", "note": "[Example 57]", "EC50": 5.59}
{"smiles": "CN(C(=O)c1ccc(C2CC2)cc1)c1ccn2ncc(-c3ccc(C(F)(F)F)cc3)c2c1", "note": "[Example 50]", "EC50": "> 20"}
{"smiles": "CC(c1ccn2ncc(-c3ccc(C(N)=O)cc3)c2c1)N1C(=O)COc2cc(F)ccc21", "note": "(centres unmarked) [Example 66]", "EC50": 0.132}
{"smiles": "CN(C(=O)c1ccn2ncc(-c3cnc(N)c(Cl)c3)c2c1)c1ccc(C#N)cn1", "note": "[Example 86]", "EC50": 0.501}
{"smiles": "Fc1ccc(CCc2ccn3ncc(-c4ccc(C(F)(F)F)cc4)c3c2)cc1", "note": "[Example 16]", "EC50": "> 20"}
{"smiles": "CN(C(=O)c1ccn2ncc(-c3cnc4[nH]ccc4c3)c2c1)c1ccc(C#N)cc1", "note": "[Example 40]", "EC50": 0.074}
{"smiles": "CNC(=O)c1ccc(-c2cnn3ccc(C(=O)N4c5ccc(F)cc5OCC4C)cc23)cc1", "note": "(centres unmarked) [Example 74]", "EC50": 1.24}
{"smiles": "CN(C(=O)c1ccc(F)cn1)c1ccn2ncc(-c3ccc(C(F)(F)F)cc3)c2c1", "note": "[Example 51]", "EC50": "> 20"}
{"smiles": "CN(C(=O)c1ccn2ncc(-c3ccc(N)cc3)c2c1)c1ccc(C#N)cc1", "note": "[Example 42]", "EC50": 0.142}
{"smiles": "CS(=O)(=O)c1ccc(N(CC2CCOCC2)C(=O)c2ccn3ncc(-c4ccc(C(F)(F)F)cc4)c3c2)cc1", "note": "[Example 12]", "EC50": 12.6}
{"smiles": "Cc1ccc(N(C)C(=O)c2ccn3ncc(-c4ccc(C(N)=O)cc4)c3c2)nc1", "note": "[Example 63]", "EC50": 0.195}
{"smiles": "Fc1ccc(SCc2ccn3ncc(-c4ccc(C(F)(F)F)cc4)c3c2)cc1", "note": "[Example 21]", "EC50": "> 20"}
{"smiles": "CN(C(=O)c1ccc(C2CC2)nc1)c1ccn2ncc(-c3ccc(C(F)(F)F)cc3)c2c1", "note": "[Example 49]", "EC50": 19.2}
{"smiles": "Cc1cc(-c2cnn3ccc(C(=O)N(C)c4ccc(C#N)cc4)cc23)cnc1N", "note": "[Example 81]", "EC50": 0.683}
{"smiles": "Cc1ccc(N(C)C(=O)c2ccn3ncc(-c4ccc(C(F)(F)F)cc4)c3c2)nc1", "note": "[Example 5]", "EC50": "> 20"}
{"smiles": "COc1ccc(-c2cnn3ccc(C(=O)N(C)c4ccc(C#N)cn4)cc23)nc1", "note": "[Example 60]", "EC50": 2.37}
{"smiles": "CN(C(=O)c1ccc(C(C)(F)F)nc1)c1ccn2ncc(-c3ccc(C(F)(F)F)cc3)c2c1", "note": "[Example 48]", "EC50": 6.3}
{"test_system": "not listed separately", "assay": "Cytotoxicity against HepG2", "assay_type": "cell-based", "conditions": "human, HepG2 cells (ATCC HB-8065), 5 days exposure", "procedure": "Cytotoxicity against HepG2 (ATCC# HB-8065), a human liver cancer cell line, was determined as previously described earlier (Manjunatha et al., 2015). Briefly, cells were seeded at a density of 10^5 cells per well, incubated at 37° C. for 24 h and exposed to two-fold serially-diluted compounds for 5 days. Cell viability was monitored using the Cell Proliferation Kit II (Invitrogen). The cytotoxicity values of selected compounds are reported in the fifth column [HepG2 CC50 (μM)] of Table II.", "units": {"CC50 at 5 days": "µM"}}
{"smiles": "CN(C(=O)c1ccn2ncc(-c3cnc(Cl)c(NS(C)(=O)=O)c3)c2c1)c1ccc(C#N)cn1", "note": "[Example 107]", "CC50 at 5 days": 39.7}
{"smiles": "CNC(=O)c1ccc(-c2cnn3ccc(S(=O)(=O)N(c4ccc(C#N)cn4)C4CC4)cc23)cc1", "note": "[Example 164]", "CC50 at 5 days": 6.98}
{"smiles": "CCN(C(=O)c1ccn2ncc(-c3ccc(C(=O)NC)cc3)c2c1)c1ccc(C#N)c(OCCO)n1", "note": "[Example 162]", "CC50 at 5 days": 24.4}
